Measured values from patent US9416141B2 (University of Washington through its Center for …, priority 2012, dated 2016).
Where a name gives a salt, the structure may show the parent alone.

Test system: hair cells
Test: Hair cell toxicity assay in zebrafish (neomycin-induced hair cell death, DASPEI staining of neuromasts)
Format: in vivo
Conditions: Danio rerio; for Emax at 25 µM: maximum observed @ 25 μM test compound; for Emax at 25 µM / Emax at 8.3 µM / Emax at 2.8 µM / Emax at 0.9 µM: 200 micromolar neomycin, read-out: Max HC Protection (HCmax, % hair cell survival); for EC50: zebrafish larvae 5-7 dpf, 1 h pre-treatment, then 200 micromolar neomycin + test compound 30 min, read-out: HC50 (concentration that would produce 50% hair cell survival); for Emax at 8.3 µM: maximum observed @ 8.3 μM test compound; for Emax at 2.8 µM: maximum observed @ 2.8 μM test compound; for Emax at 0.9 µM: maximum observed @ 0.9 μM test compound
How it was run: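 Hair cell survival, as % of untreated controls, came from DASPEI scoring (0-2 each, ten neuromasts on one side) in 5-7 dpf larvae. These had 1 h compound pre-exposure (0.010-25 μM), then 200 μM neomycin with compound for 30 min. HCmax is peak protection; HC50 interpolated between flanking concentrations only when ≥50% survive.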

Compound	Emax at 25 µM	EC50	Emax at 8.3 µM	Emax at 2.8 µM	Emax at 0.9 µM
CCN1CCc2c(sc(NC(=O)Nc3ccc4c(c3)OC(F)(F)O4)c2C(N)=O)C1 [Example 85, 2-[3-(2,2-Difluorobenzo[d][1,3]dioxol-5-yl)ureido]-6-ethyl-4,5,6,7-tetrahydrothieno[2,3-c]pyridine-3-carboxamide hydrochloride]	63%	1000 to 10000 nM			
CC(C)C(C)N1CCc2c(sc(NC(=O)Nc3ccc(Cl)cc3)c2C(N)=O)C1 (racemic) [Example 48, (+/−)-2-[3-(4-Chlorophenyl)ureido]-6-(3-methylbutan-2-yl)-4,5,6,7-tetrahydrothieno[2,3-c]pyridine-3-carboxamide hydrochloride]	72%	1000 to 10000 nM			
CC1(C)Cc2c(sc(NC(=O)Nc3ccc(Cl)cc3)c2C(N)=O)C(C)(C)N1 [Example 90, 2-[3-(4-Chlorophenyl)ureido]-5,5,7,7-tetramethyl-4,5,6,7-tetrahydrothieno[2,3-c]pyridine-3-carboxamide hydrochloride]		1000 to 10000 nM	99%		
CCN1CCc2sc(NC(=O)Nc3ccc(Cl)cc3)c(C(N)=O)c2C1 [Example 116, 2-[3-(4-Chlorophenyl)ureido]-5-ethyl-4,5,6,7-tetrahydrothieno[3,2-c]pyridine-3-carboxamide hydrochloride]	82%	1000 to 10000 nM			
NC(=O)c1c(NC(=O)Nc2ccc(Cl)cc2)sc2c1CCN(CCCNC(=O)CCc1cccnc1)C2 [Example 211, 2-{[(4-chlorophenyl)carbamoyl]amino}-6-{3-[3-(pyridin-3-yl)propanamido]propyl}-4H,5H,6H,7H-thieno[2,3-c]pyridine-3-carboxamide]	95%	< 1000 nM			
CC(C)(C)OC(=O)NCCCN1CCc2c(sc(NC(=O)Nc3ccc(C(=O)c4ccccc4)cc3)c2C(N)=O)C1 [Example 208, tert-Butyl N-[3-(2-{[(4-benzoylphenyl)carbamoyl]amino}-3-carbamoyl-4H,5H,6H,7H-thieno[2,3-c]pyridin-6-yl)propyl]carbamate]		1000 to 10000 nM		56%	
NC(=O)c1c(NC(=O)Nc2ccc(Cl)cc2)sc2c1CC1CCC2N1 (single isomer, unassigned; (-)) [Example 129, (−)-2-[3-(4-Chlorophenyl)ureido]-5,6,7,8-tetrahydro-4H-5,8-epiminocyclohepta[b]thiophene-3-carboxamide hydrochloride]		< 1000 nM		81%	
COCCC[N+]1(C)CCc2c(sc(NC(=O)Nc3ccc(Cl)cc3)c2C(N)=O)C1 (stereo not drawn) [Example 141, 3-Carbamoyl-2-[3-(4-chlorophenyl)ureido]-6-(3-methoxypropyl)-6-methyl-4,5,6,7-tetrahydrothieno[2,3-c]pyridin-6-ium iodide]		< 1000 nM		77%	
NC(=O)c1c(NC(=O)Nc2ccc(Cl)cc2)sc2c1CCN(CC1CCCCC1)C2 [Example 16, 2-[3-(4-Chlorophenyl)ureido]-6-(cyclohexylmethyl)-4,5,6,7-tetrahydrothieno[23-c]pyridine-3-carboxamide hydrochloride]		1000 to 10000 nM		57%	
CCN1CCc2c(sc(NC(=O)Nc3ccc(Cl)cc3)c2C(=O)NC2COC2)C1 [Example 102, 2-[3-(4-Chlorophenyl)ureido]-6-ethyl-N-(oxetan-3-yl)-4,5,6,7-tetrahydrothieno[2,3-c]pyridine-3-carboxamide]	22%				
NC(=O)c1c(NC(=O)Nc2ccc(Cl)cc2)sc2c1CCOC2 [Example 92, 2-[3-(4-Chlorophenyl)ureido]-5,7-dihydro-4H-thieno[2,3-c]pyran-3-carboxamide]				22%	
NC(=O)c1c(NC(=O)Nc2ccc(Cl)cc2)sc2c1CCN(CCCNC(=O)CCc1c[nH]c3ccccc13)C2 [Example 209, 2-{[(4-chlorophenyl)carbamoyl]amino}-6-{3-[3-(1H-indol-3-yl)propanamido]propyl}-4H,5H,6H,7H-thieno[2,3-c]pyridine-3-carboxamide]		< 1000 nM		98%	
NC(=O)c1c(NC(=O)Nc2ccc(Cl)cc2)sc2c1CCN(CC13CC4CC(CC(C4)C1)C3)C2 [Example 49, 6-[(3r,5r,7r)-Adamantan-1-ylmethyl]-2-[3-(4-chlorophenyl)ureido]-4,5,6,7-tetrahydrothieno[2,3-c]pyridine-3-carboxamide hydrochloride]		1000 to 10000 nM		64%	
CCN1CCc2c(sc(NC(=O)Nc3cnc4ccccc4c3)c2C(N)=O)C1 [Example 78, 6-Ethyl-2-[3-(quinolin-3-yl)ureido]-4,5,6,7-tetrahydrothieno[2,3-c]pyridine-3-carboxamide dihydrochloride]	52%	> 10000 nM			
C[N+](C)(C)C1CCc2c(sc(NC(=O)Nc3ccc(Cl)cc3)c2C(N)=O)C1 (stereo not drawn) [Example 169, 3-Carbamoyl-2-[3-(4-chlorophenyl)ureido]-N,N,N-trimethyl-4,5,6,7-tetrahydrobenzo[b]thiophen-6-aminium iodide]	101%	1000 to 10000 nM			
CCN1CCc2c(sc(NC(=O)Nc3ccc(Cl)c(C)c3)c2C(N)=O)C1 [Example 64, 2-[3-(4-chloro-3-methylphenyl)ureido]-6-ethyl-4,5,6,7-tetrahydrothieno[2,3-c]pyridine-3-carboxamide hydrochloride]	77%	1000 to 10000 nM			
CCN1CCc2c(sc(NC(=O)Nc3ccc4cc(F)ccc4c3)c2C(N)=O)C1 [Example 93, 6-ethyl-2-[3-(6-fluoronaphthalen-2-yl)ureido]-4,5,6,7-tetrahydrothieno[2,3-c]pyridine-3-carboxamide hydrochloride]	97%	1000 to 10000 nM			
CC[N+]1(C)CCc2c(sc(NC(=O)Nc3ccc(Cl)cc3)c2C(N)=O)C1 (stereo not drawn) [Example 136, 3-Carbamoyl-2-[3-(4-chlorophenyl)ureido]-6-ethyl-6-methyl-4,5,6,7-tetrahydrothieno[2,3-c]pyridin-6-ium iodide]	76%	1000 to 10000 nM			
COC(=O)C(C)(C)CN1C2CCC1c1sc(NC(=O)Nc3ccc(Cl)cc3)c(C(N)=O)c1C2 (racemic) [Example 134, (+/−)-Methyl 3-{3-carbamoyl-2-[3-(4-chlorophenyl)ureido]-5,6,7,8-tetrahydro-4H-5,8-epiminocyclohepta[b]thiophen-9-yl}-2,2-dimethylpropanoate hydrochloride]					11%
CCN1CCc2c(sc(NC(=O)Nc3ccc(Cl)cc3)c2C(=O)NCc2cccnc2)C1 [Example 98, 2-[3-(4-Chlorophenyl)ureido]-6-ethyl-N-(pyridin-3-ylmethyl)-4,5,6,7-tetrahydrothieno[2,3-c]pyridine-3-carboxamide dihydrochloride]	52%	> 10000 nM			
CN(C)C(=O)CCCN1CCc2c(sc(NC(=O)Nc3ccc(Cl)cc3)c2C(N)=O)C1 [Example 23, 2-[3-(4-Chlorophenyl)ureido]-6-[4-(dimethylamino)-4-oxobutyl]-4,5,6,7-tetrahydrothieno[2,3-c]pyridine-3-carboxamide hydrochloride]				43%	
NC(=O)c1c(NC(=O)Nc2ccc(Cl)cc2)sc2c1CCC(=O)C2 [Example 91, 2-[3-(4-Chlorophenyl)ureido]-6-oxo-4,5,6,7-tetrahydrobenzo[b]thiophene-3-carboxamide]					15%
CC(C)(C)CN1CCc2c(sc(NC(=O)Nc3ccc4ccccc4c3)c2C(N)=O)C1 [Example 36, 2-[3-(Naphthalen-2-yl)ureido]-6-neopentyl-4,5,6,7-tetrahydrothieno[2,3-c]pyridine-3-carboxamide hydrochloride]			13%		
CC(C)(O)C[N+]1(C)CCc2c(sc(NC(=O)Nc3ccc(Cl)cc3)c2C(N)=O)C1 (stereo not drawn) [Example 202, 3-Carbamoyl-2-[3-(4-chlorophenyl)ureido]-6-(2-hydroxy-2-methylpropyl)-6-methyl-4,5,6,7-tetrahydrothieno[2,3-c]pyridin-6-ium iodide]		< 1000 nM	85%		
CCN1CCc2c(sc(NC(=O)Nc3ccc4c(c3)CCCC4)c2C(N)=O)C1 [Example 227, 6-ethyl-2-{[(5,6,7,8-tetrahydronaphthalen-2-yl)carbamoyl]amino}-4H,5H,6H,7H-thieno[2,3-c]pyridine-3-carboxamide]	80%	1000 to 10000 nM			
NC(=O)c1c(NC(=O)Nc2ccc(Cl)cc2)sc2c1CCN(CCCNC(=O)/C=C/c1ccccc1)C2 [Example 217, 2-{[(4-chlorophenyl)carbamoyl]amino}-6-{3-[(2E)-3-phenylprop-2-enamido]propyl}-4H,5H,6H,7H-thieno[2,3-c]pyridine-3-carboxamide]		< 1000 nM		93%	
NC(=O)c1c(NC(=O)Nc2ccc(Cl)cc2)sc2c1CCN(CC(F)(F)F)C2 [Example 89, 2-[3-(4-Chlorophenyl)ureido]-6-(2,2,2-trifluoroethyl)-4,5,6,7-tetrahydrothieno[2,3-c]pyridine-3-carboxamide]			18%		
NC(=O)c1c(NC(=O)Nc2ccc(Cl)cc2)sc2c1CC1CCCCN1C2 (racemic) [Example 117, (+/−)-2-[3-(4-chlorophenyl)ureido]-4a,5,6,7,8,10-hexahydro-4H-thieno[3,2-b]quinolizine-3-carboxamide hydrochloride]	78%	1000 to 10000 nM			
CN1CCCC12CCc1c(sc(NC(=O)Nc3ccc(Cl)cc3)c1C(N)=O)C2 (racemic) [Example 111, (+/−)-2-[3-(4-chlorophenyl)ureido]-1′-methyl-5,7-dihydro-4H-spiro(benzo[b]thiophene-6,2′-pyrrolidine)-3-carboxamide hydrochloride]		1000 to 10000 nM		55%	
